As a reminder, the Ki is a dissociation constant, usually derived from enzyme kinetics or from competition with a known ligand.

Chain of recombinant human NK3 receptor (P29371 whole entry): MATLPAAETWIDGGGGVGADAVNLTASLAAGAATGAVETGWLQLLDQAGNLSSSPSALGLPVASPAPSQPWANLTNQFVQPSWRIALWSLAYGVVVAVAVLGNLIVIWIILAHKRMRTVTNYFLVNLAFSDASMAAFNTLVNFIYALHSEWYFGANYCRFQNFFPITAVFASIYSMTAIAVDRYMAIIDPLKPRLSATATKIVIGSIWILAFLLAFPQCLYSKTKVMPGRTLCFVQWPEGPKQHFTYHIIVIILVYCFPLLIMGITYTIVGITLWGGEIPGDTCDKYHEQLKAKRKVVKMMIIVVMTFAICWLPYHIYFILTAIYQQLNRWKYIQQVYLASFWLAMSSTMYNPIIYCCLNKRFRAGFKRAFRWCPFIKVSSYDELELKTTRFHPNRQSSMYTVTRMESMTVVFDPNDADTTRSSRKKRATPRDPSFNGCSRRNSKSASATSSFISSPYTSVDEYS

For the first assay, the target named is recombinant human NK3 receptor (Homo sapiens (Human), UniProt P29371). Description: biochemical. The class given is binding. Conditions: [3H]SR142801, membranes of HEK293 cells transiently expressing recombinant human NK3 receptor; read-out: Data Ki (hNK-3 receptor affinity). The method, then:
[^3H]SR142801 Competition Binding Assay
hNK3 receptor binding experiment were performed using [^3H]SR142801 (Catalog No. TRK1035, specific activity: 74.0 Ci/mmol, Amersham, GE Healthcare UK limited, Buckinghamshire, UK) and membrane isolated from HEK293 cells transiently expressing recombinant human NK3 receptor. After thawing, the membrane homogenates were centrifuged at 48,000×g for […] at 4° C., the pellets were resuspended in the 50 mM Tris-HCl, 4 mM MnCl2, 1 μM phosphoramidon, 0.1% BSA binding buffer at pH 7.4 to a final assay concentration of 5 μg protein/well. For inhibition experiments, membranes were incubated with [^3H]SR142801 at a concentration equal to KD value of radioligand and 10 concentrations of the inhibitory compound (0.0003-10 μM) (in a total reaction volume of 500 μl) for 75 min at room temperature (RT). At the end of the incubation, membranes were filtered onto unitfilter (96-well white microplate with bonded GF/C filter preincubated 1 h in 0.3% PEI+0.3% BSA, Packard BioScience, Meriden, Conn.) with a Filtermate 196 harvester (Packard BioScience) and washed 4 times with ice-cold 50 mM Tris-HCl, pH 7.4 buffer. Nonspecific binding was measured in the presence of 10 μM SB222200 for both radioligands. The radioactivity on the filter was counted (5 min) on a Packard Top-count microplate scintillation counter with quenching correction after addition of 45 μl of microscint 40 (Canberra Packard S.A., Zürich, Switzerland) and shaking for 1 h. Inhibition curves were fitted according to the Hill equation: y=100/(1+(x/IC50)^nH), where nH=slope factor using Excel-fit 4 software (Microsoft). IC50 values were derived from the inhibition curve and the affinity constant (Ki) values were calculated using the Cheng-Prussoff equation Ki=IC50/(1+[L]/KD) where [L] is the concentration of radioligand and KD is its dissociation constant at the receptor, derived from the saturation isotherm. All experiments were performed in duplicate and the mean±standard error (SEM) of the individual Ki values was calculated.
Turning to `CCN(C(=O)Oc1ccc(F)cc1)[C@@H]1CN(C(=O)C2CCN(c3cnc(C#N)cn3)CC2)C[C@H]1c1ccc(F)c(F)c1` [Example 62, [(3S,4R)-1-[1-(5-Cyano-pyrazin-2-yl)-piperidine-4-carbonyl]-4-(3,4-difluoro-phenyl)-pyrrolidin-3-yl]-ethyl-carbamic acid 4-fluoro-phenyl ester], the Ki worked out at 6 nM.
Turning to `CCN(C(=O)Oc1ccc(F)cc1)[C@@H]1CN(C(=O)C2CCN(c3ccc(C#N)nc3)CC2)C[C@H]1c1ccc(Cl)c(F)c1` [Example 43, [(3S,4R)-4-(4-Chloro-3-fluoro-phenyl)-1-(6′-cyano-3,4,5,6-tetrahydro-2H-[1,3′]bipyridinyl-4-carbonyl)-pyrrolidin-3-yl]-ethyl-carbamic acid 4-fluoro-phenyl ester], the Ki came to 0.3 nM.
Turning to `CCN(C(=O)Oc1ccc(F)cc1)[C@@H]1CN(C(=O)C2CCN(c3ccc(C#N)nn3)CC2)C[C@H]1c1ccc(F)c(F)c1` [Example 58, [(3S,4R)-1-[1-(6-Cyano-pyridazin-3-yl)-piperidine-4-carbonyl]-4-(3,4-difluoro-phenyl)-pyrrolidin-3-yl]-ethyl-carbamic acid 4-fluoro-phenyl ester], the Ki is 5 nM.
The same measure, in the same setting: to `CCN(C(=O)Oc1ccc(F)cc1)[C@@H]1CN(C(=O)C2CCN(C(=O)C3CC(F)C3)CC2)C[C@H]1c1ccc(Cl)c(F)c1` (stereo partly drawn) [Example 69, {(3S,4R)-4-(4-Chloro-3-fluoro-phenyl)-1-[1-(3-fluoro-cyclobutanecarbonyl)-piperidine-4-carbonyl]-pyrrolidin-3-yl}-ethyl-carbamic acid 4-fluoro-phenyl ester] belongs 2 nM; to `CCN(C(=O)Oc1ccc(F)cc1)[C@@H]1CN(C(=O)C2CCN(c3ccc(C(C)=O)cn3)CC2)C[C@H]1c1ccc(Cl)c(Cl)c1` [Example 116, [(3S,4R)-1-(5′-Acetyl-3,4,5,6-tetrahydro-2H-[1,2′]bipyridinyl-4-carbonyl)-4-(3,4-dichloro-phenyl)-pyrrolidin-3-yl]-ethyl-carbamic acid 4-fluoro-phenyl ester], 0.5 nM; to `CCN(C(=O)Oc1ccc(F)cc1)[C@@H]1CN(C(=O)C2CCN(C(=O)C3(C(F)(F)F)CCC3)CC2)C[C@H]1c1ccc(Cl)cc1` [Example 92, {(3S,4R)-4-(4-Chloro-phenyl)-1-[1-(1-trifluoromethyl-cyclobutanecarbonyl)-piperidine-4-carbonyl]-pyrrolidin-3-yl}-ethyl-carbamic acid 4-fluoro-phenyl ester], 6.6 nM.
Same read-out and setting: to `CCN(C(=O)Oc1ccc(F)cc1)[C@H]1CN(C(=O)C2CCN(c3ccc(C#N)nn3)CC2)C[C@@H]1c1ccc(Cl)cc1` [Example 12, {(3R,4S)-4-(4-Chloro-phenyl)-1-[1-(6-cyano-pyridazin-3-yl)-piperidine-4-carbonyl]-pyrrolidin-3-yl}-ethyl-carbamic acid 4-fluoro-phenyl ester] belongs 23 nM; to `CC(=O)c1ccc(N2CCC(C(=O)N3C[C@@H](N(C(=O)Oc4ccc(F)cc4)C4CC4)[C@H](c4ccc(Cl)cc4)C3)CC2)nc1` [Example 30, [(3S,4R)-1-(5′-Acetyl-3,4,5,6-tetrahydro-2H-[1,2′]bipyridinyl-4-carbonyl)-4-(4-chloro-phenyl)-pyrrolidin-3-yl]-cyclopropyl-carbamic acid 4-fluoro-phenyl ester], 35 nM.
With `CCN(C(=O)Oc1ccc(F)cc1)[C@@H]1CN(C(=O)C2CCN(C(=O)c3ccc(C#N)nc3)CC2)C[C@H]1c1ccc(Cl)c(F)c1` [Example 79, {(3S,4R)-4-(4-Chloro-3-fluoro-phenyl)-1-[1-(6-cyano-pyridine-3-carbonyl)-piperidine-4-carbonyl]-pyrrolidin-3-yl}-ethyl-carbamic acid 4-fluoro-phenyl ester], the Ki is 8 nM.
In the case of `CCN(C(=O)Oc1ccc(F)cc1)[C@H]1CN(C(=O)C2CCN(c3ccc(C(C)=O)cn3)CC2)C[C@@H]1c1ccc(Cl)cc1` [Example 8, [(3R,4S)-1-(5′-Acetyl-3,4,5,6-tetrahydro-2H-[1,2′]bipyridinyl-4-carbonyl)-4-(4-chloro-phenyl)-pyrrolidin-3-yl]-ethyl-carbamic acid 4-fluoro-phenyl ester], the inhibition constant Ki was found to be 55 nM.
With `CCN(C(=O)Oc1ccc(F)cc1)[C@@H]1CN(C(=O)C2CCN(C(=O)C3(C#N)CC3)CC2)C[C@H]1c1ccc(Cl)cc1` [Example 94, {(3S,4R)-4-(4-Chloro-phenyl)-1-[1-(1-cyano-cyclopropanecarbonyl)-piperidine-4-carbonyl]-pyrrolidin-3-yl}-ethyl-carbamic acid 4-fluoro-phenyl ester], the Ki was 7.8 nM.
Same read-out and setting: then `CCN(C(=O)Oc1ccc(F)cc1)[C@@H]1CN(C(=O)C2CCN(C(=O)C3CCOCC3)CC2)C[C@H]1c1ccc(Cl)cc1` [Example 97, {(3S,4R)-4-(4-Chloro-phenyl)-1-[1-(tetrahydro-pyran-4-carbonyl)-piperidine-4-carbonyl]-pyrrolidin-3-yl}-ethyl-carbamic acid 4-fluoro-phenyl ester], with 4.4 nM; and `CCN(C(=O)Oc1ccc(F)cc1)[C@@H]1CN(C(=O)C2CCN(c3ccc(C)cn3)CC2)C[C@H]1c1ccc(Cl)c(F)c1` [Example 47, [(3S,4R)-4-(4-Chloro-3-fluoro-phenyl)-1-(5′-methyl-3,4,5,6-tetrahydro-2H-[1,2′]bipyridinyl-4-carbonyl)-pyrrolidin-3-yl]-ethyl-carbamic acid 4-fluoro-phenyl ester], with 2 nM.
Same read-out and setting: to `CCN(C(=O)Oc1ccc(F)cc1)[C@@H]1CN(C(=O)C2CCN(c3ccc(C(F)(F)F)cn3)CC2)C[C@H]1c1ccc(Cl)c(Cl)c1` [Example 114, [(3S,4R)-4-(3,4-Dichloro-phenyl)-1-(5′-trifluoromethyl-3,4,5,6-tetrahydro-2H-[1,2′]bipyridinyl-4-carbonyl)-pyrrolidin-3-yl]-ethyl-carbamic acid 4-fluoro-phenyl ester] belongs 1.6 nM; to `CC(=O)c1ccc(N2CCC(C(=O)N3C[C@@H](N(C(=O)Oc4ccc(F)cc4)C(C)C)[C@H](c4ccc(Cl)cc4)C3)CC2)nc1` [Example 24, [(3S,4R)-1-(5′-Acetyl-3,4,5,6-tetrahydro-2H-[1,2′]bipyridinyl-4-carbonyl)-4-(4-chloro-phenyl)-pyrrolidin-3-yl]-isopropyl-carbamic acid 4-fluoro-phenyl ester], 62 nM.

Staying with this assay, now noted: read-out: Data Ki (hNK-3 receptor affinity).
On to `CCN(C(=O)Oc1ccc(F)cc1)[C@@H]1CN(C(=O)C2CCN(c3cc(C#N)ccn3)CC2)C[C@H]1c1ccc(Cl)c(F)c1` [Example 45, [(3S,4R)-4-(4-Chloro-3-fluoro-phenyl)-1-(4′-cyano-3,4,5,6-tetrahydro-2H-[1,2′]bipyridinyl-4-carbonyl)-pyrrolidin-3-yl]-ethyl-carbamic acid 4-fluoro-phenyl ester], for which the Ki is 3 nM.
Same read-out and setting: then `CCN(C(=O)Oc1ccc(F)cc1)[C@H]1CN(C(=O)C2CCN(c3ccc(C(F)(F)F)cn3)CC2)C[C@@H]1c1ccc(Cl)cc1` [Example 19, [(3R,4S)-4-(4-Chloro-phenyl)-1-(5′-trifluoromethyl-3,4,5,6-tetrahydro-2H-[1,2′]bipyridinyl-4-carbonyl)-pyrrolidin-3-yl]-ethyl-carbamic acid 4-fluoro-phenyl ester], with 88 nM.
The same measure, in the same setting: then `CCN(C(=O)Oc1ccc(F)cc1)[C@@H]1CN(C(=O)C2CCN(C(=O)c3ccc(F)cc3)CC2)C[C@H]1c1ccc(Cl)c(F)c1` [Example 77, {(3S,4R)-4-(4-Chloro-3-fluoro-phenyl)-1-[1-(4-fluoro-benzoyl)-piperidine-4-carbonyl]-pyrrolidin-3-yl}-ethyl-carbamic acid 4-fluoro-phenyl ester], with 4 nM; and `CCN(C(=O)Oc1ccc(F)cc1)[C@@H]1CN(C(=O)C2CCN(c3ccc(C(C)O)cn3)CC2)C[C@H]1c1ccc(Cl)cc1` (stereo partly drawn) [Example 108, {(3S,4R)-4-(4-Chloro-phenyl)-1-[5′-(1-hydroxy-ethyl)-3,4,5,6-tetrahydro-2H-[1,2]bipyridinyl-4-carbonyl]-pyrrolidin-3-yl}-ethyl-carbamic acid 4-fluoro-phenyl ester], with 4.7 nM.
Consider `O=C(C1CCN(c2ccc(C(F)(F)F)cn2)CC1)N1C[C@@H](N(C(=O)Oc2ccc(F)cc2)C2CC2)[C@H](c2ccc(Cl)cc2)C1` [Example 31, [(3S,4R)-4-(4-Chloro-phenyl)-1-(5′-trifluoromethyl-3,4,5,6-tetrahydro-2H-[1,2′]bipyridinyl-4-carbonyl)-pyrrolidin-3-yl]-cyclopropyl-carbamic acid 4-fluoro-phenyl ester], for which the Ki came out at 57 nM.

Values taken from patent US9346786B2, “Pyrrolidine compounds” (Hoffmann-La Roche Inc., priority 2009, dated 2016).
